pIC50: −log10 of the molar value.

As a reminder, the pIC50 is the IC50 on a negative log10 scale, so that one unit is a factor of ten. Low readings indicate a large IC50, high ones a small IC50.

Chain of FGFR3 enzyme (Millipore) (P22607 23-806): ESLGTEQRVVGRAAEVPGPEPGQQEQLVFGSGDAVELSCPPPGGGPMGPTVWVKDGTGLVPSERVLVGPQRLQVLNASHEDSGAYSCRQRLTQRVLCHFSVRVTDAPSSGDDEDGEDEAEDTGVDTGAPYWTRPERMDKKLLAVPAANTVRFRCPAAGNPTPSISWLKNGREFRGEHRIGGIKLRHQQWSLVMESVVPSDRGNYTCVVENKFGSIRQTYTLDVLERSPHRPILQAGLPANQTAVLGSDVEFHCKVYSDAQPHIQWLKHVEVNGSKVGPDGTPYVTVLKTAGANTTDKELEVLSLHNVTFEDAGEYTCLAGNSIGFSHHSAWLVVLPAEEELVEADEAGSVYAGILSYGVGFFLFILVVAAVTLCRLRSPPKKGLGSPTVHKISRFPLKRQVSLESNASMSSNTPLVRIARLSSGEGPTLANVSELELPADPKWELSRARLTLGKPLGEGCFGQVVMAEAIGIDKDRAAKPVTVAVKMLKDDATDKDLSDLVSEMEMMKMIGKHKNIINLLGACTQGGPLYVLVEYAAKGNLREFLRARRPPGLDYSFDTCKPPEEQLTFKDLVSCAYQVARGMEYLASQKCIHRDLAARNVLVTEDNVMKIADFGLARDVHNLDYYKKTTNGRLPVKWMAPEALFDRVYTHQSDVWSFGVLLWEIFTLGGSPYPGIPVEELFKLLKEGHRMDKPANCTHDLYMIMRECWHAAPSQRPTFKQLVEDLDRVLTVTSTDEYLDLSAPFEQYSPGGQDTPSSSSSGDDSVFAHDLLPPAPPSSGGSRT

The assay deals with FGFR3 enzyme (Millipore) (Homo sapiens (Human), UniProt P22607). Put plainly: FGFR3 Enzymatic Assay. Particulars: FRET peptide phosphorylation, 140 μM ATP. The class given is biochemical. A digest of the protocol:
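FGFR3 preincubated 5-10 min with serially diluted inhibitor in 50 mM HEPES pH 7.5, 10 mM MgCl2, 1 mM EGTA, 5 mM DTT, then reacted 1 h at 25 °C. Peptide phosphorylation detected by FRET; IC50 from variable-slope sigmoidal fit.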
In the case of `CC(C(=O)NC1CCOCC1)n1cc(-c2cnn3c(-c4cccc(NC(=O)NCC(F)(F)F)c4)cnc3c2)cn1` (centres unmarked) [Example 57, N-(Tetrahydro-2H-pyran-4-yl)-2-(4-{3-[3-({[(2,2,2-trifluoroethyl)amino]carbonyl}amino)phenyl]imidazo[1,2-b]pyridazin-7-yl}-1H-pyrazol-1-yl)propanamide], the pIC50 is above 8.00.

Regarding `O=C(NCC(F)(F)F)Nc1cccc(-c2cnc3cc(-c4cnn(C5CCN(C(=O)N6CCCC6)CC5)c4)cnn23)c1` [Example 36, N-[3-(7-{1-[1-(Pyrrolidin-1-ylcarbonyl)piperidin-4-yl]-1H-pyrazol-4-yl}imidazo[1,2-b]pyridazin-3-yl)phenyl]-N′-(2,2,2-trifluoroethyl)urea], the pIC50 was above 8.00.

For `O=C(NCC(F)(F)F)Nc1cccc(-c2cnc3cc(-c4cnn(C5CCN(C(=O)C(O)C(F)(F)F)CC5)c4)cnn23)c1` (centres unmarked) [Example 49, N-(2,2,2-trifluoroethyl)-N′-[3-(7-{1-[1-(3,3,3-trifluoro-2-hydroxypropanoyl)piperidin-4-yl]-1H-pyrazol-4-yl}imidazo[1,2-b]pyridazin-3-yl)phenyl]urea], the pIC50 was above 8.00.

As to `N#CC1(C(=O)N2CCC(n3cc(-c4cnn5c(-c6cccc(NC(=O)NCC(F)(F)F)c6)cnc5c4)cn3)CC2)CC1` [Example 45, N-{3-[7-(1-{1-[(1-Cyanocyclopropyl)carbonyl]piperidin-4-yl}-1H-pyrazol-4-yl)imidazo[1,2-b]pyridazin-3-yl]phenyl}-N′-(2,2,2-trifluoroethyl)urea], the pIC50 was above 8.00.

Consider `CC(C(=O)N1CC(O)C1)c1ccc(-c2cnn3c(-c4cccc(NC(=O)NCC(F)(F)F)c4)cnc3c2)cc1` (centres unmarked) [Example 104, N-[3-(7-{4-[2-(3-Hydroxyazetidin-1-yl)-1-methyl-2-oxoethyl]phenyl}imidazo[1,2-b]pyridazin-3-yl)phenyl]-N′-(2,2,2-trifluoroethyl)urea], for which the pIC50 is above 8.00.

In the case of `O=C(NCC(F)(F)F)Nc1cccc(-n2cnc3cc(-c4cccc(C(=O)NCC5CC5)c4)ccc32)c1` [Example 1], the pIC50 is above 8.00.

On to `Cn1ccc(S(=O)(=O)N2CCC(n3cc(-c4cnn5c(-c6cccc(NC(=O)NCC(F)(F)F)c6)cnc5c4)cn3)CC2)n1` [Example 31, N-{3-[7-(1-{1-[(1-methyl-1H-pyrazol-3-yl)sulfonyl]piperidin-4-yl}-1H-pyrazol-4-yl)imidazo[1,2-b]pyridazin-3-yl]phenyl}-N′-(2,2,2-trifluoroethyl)urea], for which the pIC50 was above 8.00.

As to `Cn1ccc(S(=O)(=O)N2CC(CC#N)(n3cc(-c4cnn5c(-c6cccc(NC(=O)NCC(F)(F)F)c6)cnc5c4)cn3)C2)n1` [Example 73, N-{3-[7-(1-{3-(Cyanomethyl)-1-[(1-methyl-1H-pyrazol-3-yl)sulfonyl]azetidin-3-yl}-1H-pyrazol-4-yl)imidazo[1,2-b]pyridazin-3-yl]phenyl}-N′-(2,2,2-trifluoroethyl)urea], the pIC50 was above 8.00.

The molecule `O=C(NCC(F)(F)F)Nc1cccc(-n2cnc3cc(-c4ccc(C(=O)NCC5CCCCC5O)cc4)ccc32)c1` (centres unmarked) [Example 9] gave a pIC50 above 8.00.

For the molecule `O=C(NCC(F)(F)F)Nc1cccc(-n2cnc3cc(-c4ccc(C(=O)NCCN5CCOCC5)cc4)ccc32)c1` [Example 11, N-(2-Morpholin-4-ylethyl)-4-{1-[3-({[(2,2,2-trifluoroethyl)amino]carbonyl}amino)phenyl]-1H-benzimidazol-5-yl}benzamide], the pIC50 was above 8.00.

On to `O=C(NCC(F)(F)F)Nc1cccc(-c2cnc3cc(-c4cnn(C5CCN(C(=O)Nc6cccnc6)CC5)c4)cnn23)c1` [Example 38, N-Pyridin-3-yl-4-(4-{3-[3-({[(2,2,2-trifluoroethyl)amino]carbonyl}amino)phenyl]imidazo[1,2-b]pyridazin-7-yl}-1H-pyrazol-1-yl)piperidine-1-carboxamide], for which the pIC50 was above 8.00.

Values taken from patent US10213427B2 (Incyte Corporation, priority 2010, dated 2019).
